From patent publication US11691980B2, “Liphagal analog and multi-targeted kinase inhibitor containing liphagal or analog thereof” (TOHOKU UNIVERSITY, priority 2017, dated 2023)

Legend:
Type in all cases: biochemical
[1] = molecular target: T1, PKD1 (Homo sapiens, UniProt Q15139); assay: mobility shift assay
T1 construct: purchased Carna Biosciences

[2] = molecular target: T2, MSK2 (Homo sapiens, UniProt O75676); assay: mobility shift assay
T2 construct: purchased Carna Biosciences

[3] = molecular target: T3, GSK3α (Homo sapiens, UniProt P49840); assay: mobility shift assay
T3 construct: purchased Carna Biosciences

[4] = molecular target: T4, MER (Homo sapiens, UniProt Q12866); assay: mobility shift assay
T4 construct: purchased Carna Biosciences
T4 sequence (Q12866 21-999): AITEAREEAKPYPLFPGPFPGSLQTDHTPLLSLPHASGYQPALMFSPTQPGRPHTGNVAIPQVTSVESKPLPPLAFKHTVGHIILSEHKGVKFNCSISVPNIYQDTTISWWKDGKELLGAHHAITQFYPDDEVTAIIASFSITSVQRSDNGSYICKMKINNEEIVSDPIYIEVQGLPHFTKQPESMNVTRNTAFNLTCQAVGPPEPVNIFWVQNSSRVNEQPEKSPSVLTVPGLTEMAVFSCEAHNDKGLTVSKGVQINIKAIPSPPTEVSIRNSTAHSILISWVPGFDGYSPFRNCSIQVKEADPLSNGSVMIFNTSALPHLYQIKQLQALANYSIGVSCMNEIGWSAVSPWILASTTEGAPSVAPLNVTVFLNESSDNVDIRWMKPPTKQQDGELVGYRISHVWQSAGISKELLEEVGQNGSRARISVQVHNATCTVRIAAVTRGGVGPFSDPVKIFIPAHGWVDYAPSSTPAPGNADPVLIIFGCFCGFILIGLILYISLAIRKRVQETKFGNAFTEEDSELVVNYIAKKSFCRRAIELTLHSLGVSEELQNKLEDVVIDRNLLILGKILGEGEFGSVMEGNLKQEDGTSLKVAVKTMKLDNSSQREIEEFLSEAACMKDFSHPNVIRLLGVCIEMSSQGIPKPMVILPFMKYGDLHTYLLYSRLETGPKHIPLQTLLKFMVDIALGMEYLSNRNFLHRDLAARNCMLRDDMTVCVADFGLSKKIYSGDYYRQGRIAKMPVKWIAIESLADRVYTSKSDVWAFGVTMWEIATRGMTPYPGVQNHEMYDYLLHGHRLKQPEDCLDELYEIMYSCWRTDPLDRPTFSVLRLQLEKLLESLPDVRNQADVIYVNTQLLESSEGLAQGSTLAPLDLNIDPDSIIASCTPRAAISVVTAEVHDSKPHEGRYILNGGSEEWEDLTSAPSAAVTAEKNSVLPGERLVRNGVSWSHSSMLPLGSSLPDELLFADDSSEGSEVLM

[5] = molecular target: T5, SRC (Homo sapiens, UniProt P12931); assay: mobility shift assay
T5 construct: purchased Carna Biosciences

[6] = molecular target: T6, QIK (Homo sapiens, UniProt Q9H0K1); assay: mobility shift assay
T6 construct: purchased Carna Biosciences

[7] = tested on: ALK(L1152lnsT); assay: mobility shift assay; conditions: 10 μM
[8] = molecular target: T7, PLK2 (Homo sapiens, UniProt Q9NYY3); assay: IMAP Assay
T7 construct: purchased Carna Biosciences

[9] = molecular target: T8, PDGF Ru(DB42V) (Homo sapiens, UniProt P16234, D842V); assay: mobility shift assay
T8 construct: purchased Carna Biosciences

[10] = molecular target: T9, WNK1 (Homo sapiens, UniProt Q9H4A3); assay: mobility shift assay
T9 construct: purchased Carna Biosciences

[11] = molecular target: T10, Nuak2 (Homo sapiens, UniProt Q9H093); assay: mobility shift assay
T10 construct: purchased Carna Biosciences

[12] = molecular target: T11, MST 1 (Homo sapiens, UniProt Q13043); assay: mobility shift assay
T11 construct: purchased Carna Biosciences

[13] = molecular target: T12, TIE2 (Homo sapiens, UniProt Q02763); assay: mobility shift assay
T12 construct: purchased Carna Biosciences

[14] = molecular target: T13, PKACβ (Homo sapiens, UniProt P22694); assay: mobility shift assay
T13 construct: purchased Carna Biosciences

[15] = molecular target: T14, FLT3 (Homo sapiens, UniProt P36888); assay: mobility shift assay
T14 construct: purchased Carna Biosciences

[16] = molecular target: T15, PIM2 (Homo sapiens, UniProt Q9P1W9); assay: IC50 by mobility shift assay; conditions: Table 2, mobility shift assay; read-out: IC50 (μM), Kinase PIM2
T15 sequence (Q9P1W9 whole entry): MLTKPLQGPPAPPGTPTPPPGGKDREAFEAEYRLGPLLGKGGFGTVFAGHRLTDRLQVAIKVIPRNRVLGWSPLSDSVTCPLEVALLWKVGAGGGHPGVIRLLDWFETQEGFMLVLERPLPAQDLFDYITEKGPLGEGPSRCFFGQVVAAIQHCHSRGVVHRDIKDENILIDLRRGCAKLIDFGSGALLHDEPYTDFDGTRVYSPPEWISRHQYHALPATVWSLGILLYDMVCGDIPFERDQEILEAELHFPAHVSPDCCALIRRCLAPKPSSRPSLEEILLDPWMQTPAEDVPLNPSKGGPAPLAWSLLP
Source text: (§1) The compounds produced in Production Examples described above were each assessed for its inhibitory activity against CDK7, PIM2, and PI3K by mobility shift assay. In addition, a combination showing the highest inhibitory activity against each kinase is indicated by italics.

[17] = molecular target: CDK7/CycHMAT1 (Homo sapiens, UniProt P50613); assay: IC50 by mobility shift assay; conditions: Table 2, mobility shift assay; read-out: IC50 (μM), Kinase CDK7/CycH/MAT1
Chain of CDK7/CycHMAT1 (P50613 whole entry): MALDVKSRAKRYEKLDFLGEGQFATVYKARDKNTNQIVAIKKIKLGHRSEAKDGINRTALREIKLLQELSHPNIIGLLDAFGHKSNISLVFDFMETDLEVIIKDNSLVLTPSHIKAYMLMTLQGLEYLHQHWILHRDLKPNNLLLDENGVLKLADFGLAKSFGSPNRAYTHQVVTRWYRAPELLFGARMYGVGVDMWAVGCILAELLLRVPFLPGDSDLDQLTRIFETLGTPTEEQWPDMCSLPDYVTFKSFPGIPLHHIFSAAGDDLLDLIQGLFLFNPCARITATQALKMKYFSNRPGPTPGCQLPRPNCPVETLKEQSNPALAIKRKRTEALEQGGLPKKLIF
Chain of CDK7/CycHMAT1 (P51946 whole entry partner): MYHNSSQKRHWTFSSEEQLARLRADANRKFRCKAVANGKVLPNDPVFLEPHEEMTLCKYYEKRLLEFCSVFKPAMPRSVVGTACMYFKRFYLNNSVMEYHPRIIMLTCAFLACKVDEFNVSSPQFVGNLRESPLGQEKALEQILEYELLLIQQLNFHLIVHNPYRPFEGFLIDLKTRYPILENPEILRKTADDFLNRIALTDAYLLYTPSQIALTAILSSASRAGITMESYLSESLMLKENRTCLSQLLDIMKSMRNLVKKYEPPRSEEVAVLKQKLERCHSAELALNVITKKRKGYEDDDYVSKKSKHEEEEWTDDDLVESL
Chain of CDK7/CycHMAT1 (P51948 whole entry partner): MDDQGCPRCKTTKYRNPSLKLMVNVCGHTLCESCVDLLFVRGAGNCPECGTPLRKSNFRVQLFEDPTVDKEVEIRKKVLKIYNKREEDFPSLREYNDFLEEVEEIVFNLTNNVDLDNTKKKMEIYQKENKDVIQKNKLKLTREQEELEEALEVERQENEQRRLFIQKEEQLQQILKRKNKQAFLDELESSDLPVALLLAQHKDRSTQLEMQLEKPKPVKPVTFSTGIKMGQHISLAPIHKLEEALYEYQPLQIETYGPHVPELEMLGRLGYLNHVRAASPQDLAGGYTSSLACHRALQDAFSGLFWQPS
Source text: as §1

[18] = molecular target: T16, MLK3_Cascade (Homo sapiens, UniProt Q16584); assay: mobility shift assay
T16 construct: purchased Carna Biosciences

[19] = molecular target: T17, CHK2 (Homo sapiens, UniProt O96017); assay: mobility shift assay
T17 construct: purchased Carna Biosciences

[20] = molecular target: T18, p70S6Kβ (Homo sapiens, UniProt Q9UBS0); assay: mobility shift assay
T18 construct: purchased Carna Biosciences
T18 sequence (Q9UBS0 whole entry): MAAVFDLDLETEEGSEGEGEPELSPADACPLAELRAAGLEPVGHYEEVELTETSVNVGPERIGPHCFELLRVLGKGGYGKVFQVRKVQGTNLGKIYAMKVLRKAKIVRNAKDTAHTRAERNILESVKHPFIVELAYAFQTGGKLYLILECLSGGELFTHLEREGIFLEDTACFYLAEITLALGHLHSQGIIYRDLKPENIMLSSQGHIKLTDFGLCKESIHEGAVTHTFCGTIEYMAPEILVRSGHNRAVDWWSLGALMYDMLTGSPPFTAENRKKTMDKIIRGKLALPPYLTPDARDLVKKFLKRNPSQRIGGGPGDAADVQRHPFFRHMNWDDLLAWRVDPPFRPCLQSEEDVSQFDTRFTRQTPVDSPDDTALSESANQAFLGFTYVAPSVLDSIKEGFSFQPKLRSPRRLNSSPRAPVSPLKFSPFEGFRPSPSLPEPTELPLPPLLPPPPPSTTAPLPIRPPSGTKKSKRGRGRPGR

[21] = molecular target: T19, MARK4 (Homo sapiens, UniProt Q96L34); assay: mobility shift assay
T19 construct: purchased Carna Biosciences
T19 sequence (Q96L34 whole entry): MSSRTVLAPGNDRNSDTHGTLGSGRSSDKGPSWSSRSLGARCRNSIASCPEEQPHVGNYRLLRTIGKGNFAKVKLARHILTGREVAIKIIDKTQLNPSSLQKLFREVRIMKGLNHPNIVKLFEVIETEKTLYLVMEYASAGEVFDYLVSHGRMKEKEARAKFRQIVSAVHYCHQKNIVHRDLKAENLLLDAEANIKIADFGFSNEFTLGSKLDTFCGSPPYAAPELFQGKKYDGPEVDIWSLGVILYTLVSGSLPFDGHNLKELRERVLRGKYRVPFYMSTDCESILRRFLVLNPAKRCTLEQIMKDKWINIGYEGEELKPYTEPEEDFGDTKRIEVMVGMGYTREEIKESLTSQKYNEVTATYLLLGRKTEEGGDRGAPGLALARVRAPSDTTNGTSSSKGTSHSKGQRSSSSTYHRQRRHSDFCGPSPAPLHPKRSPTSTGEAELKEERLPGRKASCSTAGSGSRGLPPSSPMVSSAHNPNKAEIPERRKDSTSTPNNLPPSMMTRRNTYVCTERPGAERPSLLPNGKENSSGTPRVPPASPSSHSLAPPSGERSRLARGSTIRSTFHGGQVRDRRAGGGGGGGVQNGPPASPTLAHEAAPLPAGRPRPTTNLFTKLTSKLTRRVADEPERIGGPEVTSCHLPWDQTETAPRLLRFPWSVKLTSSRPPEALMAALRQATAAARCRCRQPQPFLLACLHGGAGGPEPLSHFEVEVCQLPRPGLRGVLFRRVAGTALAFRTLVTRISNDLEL

[22] = molecular target: T20, AMFKα2/β1/γ1 (Homo sapiens, UniProt P54646); assay: mobility shift assay
T20 construct: purchased Carna Biosciences

[23] = molecular target: T21, p38α (Homo sapiens, UniProt Q16539); assay: mobility shift assay
T21 construct: purchased Carna Biosciences
T21 sequence (Q16539 whole entry): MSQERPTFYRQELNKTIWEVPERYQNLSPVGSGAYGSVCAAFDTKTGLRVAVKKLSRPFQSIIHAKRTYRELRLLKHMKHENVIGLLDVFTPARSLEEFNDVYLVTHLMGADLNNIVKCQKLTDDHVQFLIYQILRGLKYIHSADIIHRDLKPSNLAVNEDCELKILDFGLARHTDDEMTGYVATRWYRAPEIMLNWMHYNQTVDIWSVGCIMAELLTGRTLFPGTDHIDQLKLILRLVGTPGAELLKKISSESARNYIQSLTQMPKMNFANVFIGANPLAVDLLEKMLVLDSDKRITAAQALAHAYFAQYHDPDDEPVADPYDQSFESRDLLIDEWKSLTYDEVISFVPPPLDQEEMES

[24] = tested on: ABL(E265K); assay: mobility shift assay; conditions: 10 μM
[25] = molecular target: T15, PIM2; assay: mobility shift assay
[26] = molecular target: T22, CHK1 (Homo sapiens, UniProt O14757); assay: mobility shift assay
T22 construct: purchased Carna Biosciences

[27] = molecular target: T23, TAK1-TAB1_Cascade (Homo sapiens, UniProt O43318); assay: mobility shift assay
T23 construct: purchased Carna Biosciences

[28] = molecular target: T24, KIT(T670I) (Homo sapiens, UniProt P10721, T670I); assay: mobility shift assay
T24 construct: purchased Carna Biosciences

[29] = molecular target: T25, EGFR(T790/L858R) (Homo sapiens, UniProt P00533, L858R/T790M); assay: mobility shift assay
T25 construct: purchased Carna Biosciences

[30] = molecular target: T26, YES(T348I) (Homo sapiens, UniProt P07947, T348I); assay: mobility shift assay
T26 construct: purchased Carna Biosciences

[31] = molecular target: T27, SkMLCK (Homo sapiens, UniProt Q9H1R3); assay: mobility shift assay
T27 construct: purchased Carna Biosciences

[32] = molecular target: T28, PAK4 (Homo sapiens, UniProt O96013); assay: mobility shift assay
T28 construct: purchased Carna Biosciences

[33] = molecular target: T29, CDK2/CycA2 (Homo sapiens, UniProt P24941); assay: mobility shift assay
T29 construct: purchased Carna Biosciences

[34] = molecular target: T30, PIM 3 (Homo sapiens, UniProt Q86V86); assay: mobility shift assay
T30 construct: purchased Carna Biosciences

[35] = molecular target: T31, FYN(isoform a) (Homo sapiens, UniProt P06241); assay: mobility shift assay
T31 construct: purchased Carna Biosciences

[36] = molecular target: T32, EPHB4 (Homo sapiens, UniProt P54760); assay: mobility shift assay
T32 construct: purchased Carna Biosciences

[37] = molecular target: T33, FGFR1 (Homo sapiens, UniProt P11362); assay: mobility shift assay
T33 construct: purchased Carna Biosciences

[38] = molecular target: T34, EGFR(d746-750/T790M) (Homo sapiens, UniProt P00533, DEL746-750/T790M); assay: mobility shift assay
T34 construct: purchased Carna Biosciences

[39] = molecular target: T35, EPHA2 (Homo sapiens, UniProt P29317); assay: mobility shift assay
T35 construct: purchased Carna Biosciences
T35 sequence (P29317 24-976): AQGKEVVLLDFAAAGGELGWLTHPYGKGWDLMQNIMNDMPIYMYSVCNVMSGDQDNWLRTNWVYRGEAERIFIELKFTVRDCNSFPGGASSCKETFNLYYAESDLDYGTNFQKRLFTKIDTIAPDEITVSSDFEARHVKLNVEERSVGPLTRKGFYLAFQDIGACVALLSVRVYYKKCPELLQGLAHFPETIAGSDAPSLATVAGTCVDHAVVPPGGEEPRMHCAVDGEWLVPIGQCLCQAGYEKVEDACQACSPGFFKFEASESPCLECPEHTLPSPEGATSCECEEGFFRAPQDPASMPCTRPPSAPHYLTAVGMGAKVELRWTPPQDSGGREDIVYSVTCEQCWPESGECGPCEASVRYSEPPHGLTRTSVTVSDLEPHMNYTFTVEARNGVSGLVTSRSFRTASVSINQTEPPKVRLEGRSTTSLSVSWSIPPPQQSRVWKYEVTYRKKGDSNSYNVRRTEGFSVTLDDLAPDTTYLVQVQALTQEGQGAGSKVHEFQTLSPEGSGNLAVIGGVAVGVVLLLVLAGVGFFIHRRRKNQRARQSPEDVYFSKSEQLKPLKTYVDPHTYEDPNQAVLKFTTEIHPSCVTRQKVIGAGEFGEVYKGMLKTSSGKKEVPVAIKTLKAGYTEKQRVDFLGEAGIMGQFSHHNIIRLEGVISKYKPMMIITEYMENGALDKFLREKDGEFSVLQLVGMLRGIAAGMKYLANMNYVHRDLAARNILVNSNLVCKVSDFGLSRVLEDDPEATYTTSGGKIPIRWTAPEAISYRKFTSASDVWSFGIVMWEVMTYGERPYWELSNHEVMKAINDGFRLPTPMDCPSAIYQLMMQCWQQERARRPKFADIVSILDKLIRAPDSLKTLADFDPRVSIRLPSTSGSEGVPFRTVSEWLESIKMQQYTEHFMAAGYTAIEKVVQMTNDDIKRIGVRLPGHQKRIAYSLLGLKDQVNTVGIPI

`C[C@@H]1CC[C@H]2C(C)(C)CCC[C@]2(C)c2c1oc1c(C=O)c(O)c(O)cc21` [LG-1, liphagal] gave an inhibition at 10 µM [1] of 4.2%, an inhibition at 10 µM [2] of -11.7% and an inhibition at 10 µM [3] of 23.1%. It also gave an inhibition at 10 µM [4] of 2.1%, an inhibition at 10 µM [5] of -7.1% and an inhibition at 10 µM [6] of 2.7%. The “% Inhibition” value [7] was −0.2%, the inhibition at 10 µM [8] was 19.7% and the inhibition at 10 µM [9] was 1.5%. For the same compound, the inhibition at 10 µM [10] was 17.3%, the inhibition at 10 µM [11] was 1.5% and the inhibition at 10 µM [12] was 24.3%. For the same compound, the inhibition at 10 µM [13] was 11.7%, the inhibition at 10 µM [14] was 13.9% and the inhibition at 10 µM [15] was 2.1%. The IC50 [16] was 5.31 µM, the IC50 [17] was 1.27 µM and the inhibition at 10 µM [18] was 19.5%. For the same compound, the inhibition at 10 µM [19] was 26.5%, the inhibition at 10 µM [20] was 26.4% and the inhibition at 10 µM [21] was -3.8%. The inhibition at 10 µM [22] was 44.1%, the inhibition at 10 µM [23] was 0.1% and the “% Inhibition” value [24] was −3.3%. For the same compound, the inhibition at 10 µM ([25]; PIM2) was 63.5%, the “inhibitory activity against PIM2” value ([25]; in words, 10 μM) was “potent inhibitory activity” and the inhibition at 10 µM [26] was -15.3%. It also gave an inhibition at 10 µM [27] of 13.9%, an inhibition at 10 µM [28] of 5.4% and an inhibition at 10 µM [29] of -2.2%. The inhibition at 10 µM [30] was 3.7%, the inhibition at 10 µM [31] was -1.3% and the inhibition at 10 µM [32] was -24.7%. For the same compound, the inhibition at 10 µM [33] was 10.3%, the inhibition at 10 µM [34] was 28.9% and the inhibition at 10 µM [35] was 0.5%. For the same compound, the inhibition at 10 µM [36] was -1.2%, the inhibition at 10 µM [37] was -2.3% and the inhibition at 10 µM [38] was 2.5%. For the same compound, the inhibition at 10 µM [39] was 2.6%.
